Data set [1] concerns Ehrlich Ascites Carcinoma (EAC) cells. Description: Ehrlich solid tumor model. The data set is classed as in vivo. The method, then: Novel oral solid dispersion containing anticancer compound of formula A was tested for in-vivo anticancer activity using Ehrlich Solid Tumor model. In this model, after oral administration of formulation VKB-SD75 and the compound of formula A in male Swiss mice up to 9 days, the % tumor growth inhibition was calculated on 13th day.
The in-vivo efficacy testing of best identified solid dispersion formulation VKB-SD75 was done using Ehrlich solid tumor model, parallelly with the compound of Formula A. Ehrlich Ascites Carcinoma (EAC) cells were collected from the peritoneal cavity of the Swiss mice weighing 18-23 g, harboring 8-10 days old ascetic tumor. 1×10^7 EAC cells were injected intramuscularly in the right thigh of Swiss male mice selected for the experiment on day 0. The next day, animals were randomized and divided into 8 groups. Seven treatment groups contained 7 animals each and one control groups contained 10 animals each. Treatment group 1-6 were treated with the compound of formula A and solid dispersion formulation at different dose strength once daily from day 1-9. The seventh treatment group was treated with 5-fluorouracil (22 mg/kg, i.p.) from day 1-9 and it served as positive control. The control group was similarly administered normal saline (0.2 ml, i.p) from day 1-9. On day 9 & 13, tumor-bearing thigh of each animal was shaved, and longest and shortest diameters of the tumor were measured with the help of vernier caliper. The percent tumor growth inhibition was calculated on day 13 by comparing the average values of treated groups with that of the control group. Tumor growth in saline-treated control animals was taken to be 100%.

A short description of data set [2]: Lipophilicity (log P). Format: physicochemical.
Data set [3] is described as follows: Water solubility by shake flask method with HPLC analysis. The note with it: distilled water, 25 °C, thermodynamic from solid. Format: physicochemical. As to the method:
(§1) The water solubility of prepared solid dispersions along with compound of Formula A was determined using shake flask method, wherein the analysis was done by HPLC. The in-vitro dissolution studies were performed using U.S.P. type-2 (paddle type) dissolution apparatus at a speed of 50 rpm, and temperature of 37° C.±0.5, using 250 ml of dissolution media (0.25% SLS containing water and phosphate buffer pH 6.8 up to 6 h). Further, the solid dispersions were characterized using different analytical techniques such as DSC, FTIR, XRD, etc.
Solid dispersions were formulated as different formulations containing anticancer compound (formula A) along with different polymers in different proportions as shown in Table 1 and 2. First the anticancer compound and various excipients/hydrophilic polymers were weighed accurately. Both the compound and polymers were dissolved in methanol. Those polymers which were insoluble in methanol were dissolved in water. […] After complete drying, the water solubility of compound was determined by shake-flask method followed by […] analysis. […]
The water solubility of formulations prepared in Example 4 and compound of Formula A was determined in each well of plate containing different solid dispersion formulations. […] The supernatant was then analyzed by RP-HPLC.

Data set [4] can be described thus: pH dependent stability in buffers, SGF, SIF and plasma. Format: physicochemical. The note with it: pH 1.2, pH 4.0, pH 6.8, PBS pH 7.4, SGF (pH 1.2), SIF (pH 6.8) and plasma, upto 24 hrs. As to the method: The stability of compound was performed in pH 1.2 buffer, pH 4.0 buffer, phosphate buffer pH 6.8, phosphate buffered saline pH 7.4, SGF (pH 1.2), SIF (pH 6.8) and plasma upto 24 hrs. The % compound hydrolyzed or degraded was determined by HPLC analysis.

Data set [5] can be described thus: In-vitro dissolution, USP type-2 paddle apparatus, sink conditions. The note with it: 50 rpm, 37° C. Format: physicochemical. The method, then: as §1
The dissolution profile of compound and solid dispersion formulation VKB-SD75 was studied in sink conditions. For the sink condition, 0.25% SLS was added to dissolution media and dissolution was studied in water and pH 6.8 phosphate buffer (Ilevbare, G. A. et al., Pharmaceutical amorphous solid dispersions, Eds. John Wiley & Sons 2015, pp. 218). The dissolution studies were carried out using Lab-India Dissolution Tester (Model: DS 8000; apparatus 2—Paddle Apparatus) at 50 rpm and 37° C.±0.5 and dissolution media volume was 250 mL. Formulation equivalent to 10 mg of compound was added to each dissolution vessel in triplicate and 1 ml sample was taken and replaced by fresh dissolution media at different time points (0.25, 0.50, 1, 2, 4, 6 hrs).
The percentage drug dissolved was determined by HPLC analysis. […]

The conditions of data set [6]: male, BALB/c, mouse, in vivo, po, 50 mg/kg.
Experimental: (§2) The vehicle used for PK study was 1% v/v Tween 80 in 0.5% sodium CMC in water. Blood samples were collected (n=3/time point) at 0.083 (IV only), 0.25, 0.5, 1, 2, 4, 8 and 24 h, post-dose. At each time point about 200 μL of blood was collected by jugular vein into a labeled microfuge tube containing 200 mM K2EDTA solution (20 μL per mL of blood) and equivalent volume of heparinized saline was replaced following sample collection. The blood samples were processed to obtain the plasma samples within 30 min of scheduled sampling time. All plasma samples were stored below −60° C. until bioanalysis. […] The pharmacokinetic parameters of compound of formula A were calculated using the non-compartmental analysis tool of validated Phoenix® WinNonlin® software (version 6.3).
Data set [7] concerns Molt-4. The conditions noted are these: read-out: Molt-4 cell growth GI50; cited from earlier work.
For data set [8], the system named is MIAPaCa-2. The conditions noted are these: read-out: MIAPaCa-2 cell growth GI50; cited from earlier work.
The subject of data set [9] is cancer cells over normal fibroblast-cells. The conditions noted are these: cited from earlier work.
Data set [10] concerns CYP/efflux-pump. The conditions noted are these: cited from earlier work.
Data set [11] concerns pancreatic xenograft. The conditions noted are these: 50 mg/kg, po; cited from earlier work.
For data set [12], the system named is colon xenograft. The conditions noted are these: 50 mg/kg, po; cited from earlier work.
The subject of data set [13] is leukemia xenograft. The note with it: 50 mg/kg, po; cited from earlier work.
Data set [14] in a line: in vivo. The note with it: male, BALB/c, mouse, po, 50 mg/kg.
Experimental: as §2
Data set [15] in a line: physchem. The conditions noted are these: 37 °C, water, thermodynamic from solid.

The structures appear in SMILES notation. Where “and” joins values, the source holds several entries; their conditions need not be identical. Equal entries are not always repeated.

Turning to `O=c1[nH]cc(F)c(=O)[nH]1` [Formulation 5-FU, 5-fluorouracil, reference compound], the Mortality in data set [1] (22 mg/kg, i/p) is on record as 0/7. Besides, in data set [1] (22 mg/kg, i/p, day 1-9), the “% Tumor growth inhibition on 13th day” value is listed as 49.44 ± 6.32%.

A word on the log P: it is a log measure of how a compound divides between an organic and an aqueous phase. Lower therefore signals a more hydrophilic compound. As a reminder, the solubility is how much of the substance goes into solution per volume. For orientation: Cmax means the peak of the concentration-time curve. A word on the GI50: it is the concentration at which growth is held to half of that of the control. Usually Tmax stands for the time at which the peak concentration occurs. For `CN1CC[C@H](c2c(O)cc(O)c3c(=O)cc(/C=C/c4c(Cl)cccc4Cl)oc23)[C@H](O)C1` [Compound of formula A, (1′R,2′S)-2-(2,6-dichlorostyryl)-5,7-dihydroxy-8-(3-hydroxy-1-methylpiperidin-4-yl)-4H-chromen-4-one], the “log P” value in data set [2] was 3.10. Further, the solubility at 24 h in data set [3] lay in the range of 10 to 20 µg/mL. Moreover, the “% drug remaining” value in data set [4] was > 95%. Further, the “% drug dissolution” value in data set [5] (phosphate buffer pH 6.8, 0.25% SLS, after 1 h) was 63%. Moreover, in data set [5] (water containing 0.25% SLS, after 2 h), the “% drug dissolved” value is given as 49.15%. Also, the Mortality in data set [1] (50 mg/kg p.o), in [1] (75 mg/kg p.o.) and in data set [1] (100 mg/kg p.o.) was 0/7 throughout. Moreover, the “% Tumor growth inhibition on 13th day” value in data set [1] (50 mg/kg p.o, once daily day 1-9) is 24.75% and 24.75 ± 3.52%; in data set [1] (75 mg/kg p.o., once daily day 1-9) it was 30.92% and 30% and 30.92 ± 5.32%; in data set [1] (100 mg/kg p.o., once daily day 1-9), 38.63 ± 3.65%. Also, in data set [6], the AUClast came out at 2570 ng·h/mL. The Cmax in [6] was 656 ng/mL. Moreover, the GI50 in data set [7] and in data set [8] was < 1000 nM in each case. For the same compound, the “selectivity for cancer cells over normal fibroblast-cells” value in data set [9] is listed as “highly selective”. The CYP/efflux-pump liability entry in data set [10] was “did not have CYP/efflux-pump liability”. Besides, the “in-vivo efficacy in pancreatic xenograft” value in data set [11] is recorded as “showed in-vivo efficacy”. In [12], the “in-vivo efficacy in colon xenograft” value was “showed in-vivo efficacy”. In data set [13], the “in-vivo efficacy in leukemia xenograft” value is recorded as “showed in-vivo efficacy”. In data set [14], the Tmax came out at 1 h. For the same compound, the solubility at 120 min in [15] is 10 to 20 µg/mL.

The record behind these values is US12036214B2, “Solid dispersion comprising an anticancer compound for improved solubility and efficacy” (COUNCIL OF SCIENTIFIC AND INDUSTRIAL RESEARCH, priority 2018, dated 2024).
